According to patent publication US6600037B1, “4,5-disubstituted-2-aminopyrimidines” (Celltech R & D Limited, priority 1999, dated 2003):

With `CC(C)(N)c1ccc(-c2nc(Nc3ccc(CCO)cc3)ncc2Cl)cc1` [Example 1, 4-[4-(1-Amino-1-methylethyl)phenyl]-5-chloro-N-[4-(2-hydroxyethyl)phenyl]pyrimidine-2-amine] the melting point was 162 to 163 °C.
For `CC(C)(N)c1ccc(-c2nc(Nc3cccc(CCO)c3)ncc2Cl)cc1` [Example 2, 4-[4-(1-Amino-1-methylethyl)phenyl]-5-chloro-N-[3-(2-hydroxyethyl)phenyl]pyrimidine-2-amine], the melting point was 184 to 185 °C.
Molecule `CC(C)(N)c1ccc(-c2nc(Nc3ccc(-n4ccnc4)cc3)ncc2Cl)cc1` [Example 3, 4-[4-(1-Amino-1-methylethyl)phenyl]-5-chloro-N-[4-(1-imidazolyl)phenyl]pyrimidine-2-amine] has a melting point of 199 to 201 °C.
For `CC(C)(N)c1ccc(-c2nc(Nc3ccc(CCO)cc3)ncc2Cl)cc1F` [Example 4, 4-[4-(1-Amino-1-methylethyl)-3-fluorophenyl]-5-chloro-N-[4-(2-hydroxyethyl)phenyl]pyrimidine-2-amine], the melting point was 172 to 176 °C.
In the case of `C=CCOC(=O)NC(C)(C)c1ccc(-c2nc(Nc3ccc(CCn4ccnc4)cc3)ncc2Cl)cc1` [Example 5, 4-[4-(1-Allyloxycarbonylamino-1-methylethyl)phenyl]-5-chloro-N-[4-(2-(imidazol-1-yl)ethyl)phenyl]pyrimidine-2-amine], the melting point is reported as 72 to 78 °C.
Work on `C=CCOC(=O)NC(C)(C)c1ccc(-c2nc(Nc3ccc(CCn4ccnc4)cc3)ncc2Cl)cc1F` [Example 7, 4-[4-(1-Allyloxycarbonylamino-1-methylethyl)-3-fluorophenyl]-5-chloro-N-[4-(2-(imidazol-1-yl)ethyl)phenyl]pyrimidine-2-amine] yielded a melting point of 88 °C.
`CC(C)(N)c1ccc(-c2nc(Nc3ccc(CCN4CCOCC4)cc3)ncc2Cl)cc1` [Example 9, 4-[4-(1-Amino-1-methylethyl)phenyl]-5-chloro-N-[4-(2-morpholinoethyl)phenyl]pyrimidine-2-amine] showed a melting point of 166 to 173 °C.
`CC(C)(N)c1ccc(-c2nc(Nc3ccc(CCn4ccnc4)cc3)ncc2Cl)cc1F` [Example 10, 4-[4-(1-Amino-1-methylethyl)-3-fluorophenyl]-5-chloro-N-[4-(2-(imidazol-1-yl)ethyl)phenyl]pyrimidine 2-amine] gave a melting point of 112 to 120 °C.
